The test system of this test is IL-1β production in PMA-differentiated THP-1 cells. Nature of the test: IL-1β production in PMA-differentiated THP-1 cells stimulated with gramicidin (hTHP-1 assay containing 2% fetal bovine serum; Procedures 1-3). The note with it: read-out: hTHP-1 IC50 (Average IC50 of compounds in hTHP-1 assay). Format: cell-based, human. The method, then: The following protocol is suitable for testing the activity of the compounds disclosed herein.
Procedure 1: IL-1β Production in PMA-Differentiated THP-1 Cells Stimulated with Gramicidin
THP-1 cells were purchased from the American Type Culture Collection and sub-cultured according to instructions from the supplier. Cells were cultured in complete RPMI 1640 (containing 10% heat inactivated FBS, penicillin (100 units/ml) and streptomycin (100 μg/ml)), and maintained in log phase prior to experimental setup. Prior to the experiment, compounds were dissolved in dimethyl sulfoxide (DMSO) to generate a 30 mM stock. The compound stock was first pre-diluted in DMSO to 3, 0.34, 0.042 and 0.0083 mM intermediate concentrations and subsequently spotted using Echo550 liquid handler into an empty 384-well assay plate to achieve desired final concentration (e.g. 100, 33, 11, 3.7, 1.2, 0.41, 0.14, 0.046, 0.015, 0.0051, 0.0017 μM). DMSO was backfilled in the plate to achieve a final DMSO assay concentration of 0.37%. The plate was then sealed and stored at room temperature until required.
THP-1 cells were treated with PMA (Phorbol 12-myristate 13-acetate) (20 ng/ml) for 16-18 hours. On the day of the experiment the media was removed and adherent cells were detached with trypsin for 5 minutes. Cells were then harvested, washed with complete RPMI 1640, spun down, and resuspended in RPMI 1640 (containing 2% heat inactivated FBS, penicillin (100 units/ml) and streptomycin (100 μg/ml). The cells were plated in the 384-well assay plate containing the spotted compounds at a density of 50,000 cells/well (final assay volume 50 μl). Cells were incubated with compounds for 1 hour and then stimulated with gramicidin (5 μM) (Enzo) for 2 hours. Plates were then centrifuged at 340 g for 5 min. Cell free supernatant (40 μL) was collected using a 96-channel PlateMaster (Gilson) and the production of IL-1β was evaluated by HTRF (cisbio). The plates were incubated for 18 h at 4° C. and read using the preset HTRF program (donor emission at 620 nm, acceptor emission at 668 nm) of the SpectraMax i3x spectrophotometer (Molecular Devices, software SoftMax 6). A vehicle only control and a dose titration of CRID3 (100-0.0017 μM) were run concurrently with each experiment.
Procedure 2: IL-1β Production in PMA-Differentiated THP-1 Cells Stimulated with Gramicidin
THP-1 cells were purchased from the American Type Culture Collection and sub-cultured according to instructions from the supplier. Prior to experiments, cells were cultured in complete RPMI 1640 (containing 10% heat inactivated FBS, penicillin (100 units/ml) and streptomycin (100 μg/ml)), and maintained in log phase prior to experimental setup. Prior to the experiment THP-1 were treated with PMA (Phorbol 12-myristate 13-acetate) (20 ng/ml) for 16-18 hours. Compounds were dissolved in dimethyl sulfoxide (DMSO) to generate a 30 mM stock. On the day of the experiment the media was removed and adherent cells were detached with trypsin for 5 minutes. Cells were then harvested, washed with complete RPMI 1640, spun down, resuspended in RPMI 1640 (containing 2% heat inactivated FBS, penicillin (100 units/ml) and streptomycin (100 μg/ml). The cells were plated in a 384-well plate at a density of 50,000 cells/well (final assay volume 50 μl). Compounds were first dissolved in assay medium to obtain a 5× top concentration of 500 μM. 10 step dilutions (1:3) were then undertaken in assay medium containing 1.67% DMSO. 5× compound solutions were added to the culture medium to achieve desired final concentration (e.g. 100, 33, 11, 3.7, 1.2, 0.41, 0.14, 0.046, 0.015, 0.0051, 0.0017 μM). Final DMSO concentration was at 0.37%. Cells were incubated with compounds for 1 hour and then stimulated with gramicidin (5 μM) (Enzo) for 2 hours. Plates were then centrifuged at 340 g for 5 min. Cell free supernatant (40 μL) was collected using a 96-channel PlateMaster (Gilson) and the production of IL-1β was evaluated by HTRF (cisbio). […]

[1] abbreviates: Homo sapiens, THP-1, hTHP-1 assay containing 2% fetal bovine serum, class symbols.
[2] abbreviates: hTHP-1 assay containing 2% fetal bovine serum, class symbols.
The mark [3] stands for this setting: Homo sapiens, THP-1, hTHP-1 assay containing 2% fetal bovine serum, given as numeric bound.

Here are results for 18 compounds from US11370763B2, “Compounds and compositions for treating conditions associated with NLRP activity” (Novartis AG, priority 2017, dated 2022).

Read-outs that look alike come from different tables or passages of the source.

One may read the IC50 as the concentration that inhibits the measured activity by half. On to `CC(C)c1cc(C#N)cc(C2CC2)c1CC(=O)N=S(N)(=O)c1ccc(CN(C)C)cc1` (single isomer, unassigned) [Example 75, (R)- or (S)-2-(4-cyano-2-cyclopropyl-6-isopropylphenyl)-N-(4-((dimethylamino)methyl)phenyl-sulfonimidoyl)acetamide], for which, under setting [1], the half-inhibitory concentration (IC50) is 1000 to 5000 nM. On to `CC(C)c1cc(OC(F)F)cc(C(C)C)c1CC(=O)N=S(N)(=O)c1sc(C(C)(C)O)cc1F` (single isomer, unassigned) [Example 76, (S)- or (R)-2-(4-(difluoromethoxy)-2,6-diisopropylphenyl)-N-(3-fluoro-5-(2-hydroxypropan-2-yl)thiophen-2-ylsulfonimidoyl)acetamide], for which, under setting [2], the IC50 was in the range of 40 to 200 nM.

As for `CCc1cc(OC(F)F)cc(C(C)C)c1CC(=O)N=S(N)(=O)c1sc(C(C)(C)O)cc1F` (single isomer, unassigned) [Example 78, (S)- or (R)-2-(4-(difluoromethoxy)-2-ethyl-6-isopropylphenyl)-N-(3-fluoro-5-(2-hydroxypropan-2-yl)thiophen-2-ylsulfonimidoyl)acetamide], under setting [2], the half-inhibitory concentration (IC50) lay within 200 to 1000 nM. As to `CC(C)c1cc(C#N)cc(C(C)C)c1CC(=O)N=S(N)(=O)c1ccc(C(C)(C)O)cc1Cl` (single isomer, unassigned) [Example 155, (R) or (S)-N-(amino(2-chloro-4-(2-hydroxypropan-2-yl)phenyl)(oxo)-λ^6-sulfaneylidene)-2-(4-cyano-2,6-diisopropylphenyl)acetamide], the half-inhibitory concentration (IC50) under setting [1] lay in the range of 200 to 1000 nM. For the compound `CC(C)c1cc(C#N)cc(C(C)C)c1CC(=O)N=S(N)(=O)c1ccc(C(C)(C)O)cc1Cl` (single isomer, unassigned) [Example 156, (S) or (R)-N-(amino(2-chloro-4-(2-hydroxypropan-2-yl)phenyl)(oxo)-λ^6-sulfaneylidene)-2-(4-cyano-2,6-diisopropylphenyl)acetamide], under setting [2], the IC50 was in the range of 200 to 1000 nM. Take `CC(C)c1ccc(F)c(C(C)C)c1CC(=O)N=S(N)(=O)c1cc(C(C)(C)O)cs1` (single isomer, unassigned) [Example 159, (R) or (S)-N-(amino(4-(2-hydroxypropan-2-yl)thiophen-2-yl)(oxo)-λ^6-sulfaneylidene)-2-(3-fluoro-2,6-diisopropylphenyl)acetamide]: the IC50 under setting [2] lay within 40 to 200 nM. On to `CC(C)c1cc(-c2ccc3c(c2)OC(F)(F)O3)cc(C(C)C)c1CC(=O)N=S(N)(=O)c1ncc(C(C)(C)O)s1` (single isomer, unassigned) [Example 166, (R) or (S)-N-(amino(5-(2-hydroxypropan-2-yl)thiazol-2-yl)(oxo)-λ^6-sulfaneylidene)-2-(4-(2,2-difuorobenzo[d][1,3]dioxol-5-yl)-2,6-diisopropylphenyl)acetamide], for which the IC50 under setting [2] lay in the range of 40 to 200 nM. Still for that read-out and setting: as for `Cc1ccc(-c2cc(C(C)C)c(CC(=O)N=S(N)(=O)c3ncc(C(C)(C)O)s3)c(C(C)C)c2)cc1C` (single isomer, unassigned) [Example 168, (R) or (S)-N-(amino(5-(2-hydroxypropan-2-yl)thiazol-2-yl)(oxo)-λ^6-sulfaneylidene)-2-(3,5-diisopropyl-3′,4′-dimethyl-[1,1′-biphenyl]-4-yl)acetamide], the figure is 200 to 1000 nM. The same measure, in the same setting: as for `CC(C)c1cc(-c2ccc(Cl)c(Cl)c2)cc(C(C)C)c1CC(=O)N=S(N)(=O)c1ncc(C(C)(C)O)s1` (single isomer, unassigned) [Example 170, (R) or (S)-N-(amino(5-(2-hydroxypropan-2-yl)thiazol-2-yl)(oxo)-λ^6-sulfaneylidene)-2-(3′,4′-dichloro-3,5-diisopropyl-[1,1′-biphenyl]-4-yl)acetamide], the figure is 200 to 1000 nM. Take `CC(C)c1cc(-c2ccc3c(c2)COCC3)cc(C(C)C)c1CC(=O)N=S(N)(=O)c1cnc(C(C)(C)O)s1` (single isomer, unassigned) [Example 171, (R) or (S)-N-(amino(2-(2-hydroxypropan-2-yl)thiazol-5-yl)(oxo)-λ^6-sulfaneylidene)-2-(4-(isochroman-7-yl)-2,6-diisopropylphenyl)acetamide]: the IC50 under setting [2] was in the range of 200 to 1000 nM. As to `CC(C)c1ccc(F)c(C(C)C)c1CC(=O)N=S(N)(=O)c1ccc(C(C)(C)O)s1` (single isomer, unassigned) [Example 176, (R) or (S)-N-(amino(5-(2-hydroxypropan-2-yl)thiophen-2-yl)(oxo)-λ^6-sulfaneylidene)-2-(3-fluoro-2,6-diisopropylphenyl)acetamide], under setting [2], the IC50 was 200 to 1000 nM. As to `CC(C)c1ccc(C#N)c(C(C)C)c1CC(=O)N=S(N)(=O)c1nc(C(C)(C)O)cs1` (single isomer, unassigned) [Example 179, (R) or (S)-N-(amino(4-(2-hydroxypropan-2-yl)thiazol-2-yl)(oxo)-λ^6-sulfaneylidene)-2-(3-cyano-2,6-diisopropylphenyl)acetamide], the IC50 under setting [2] lay within 200 to 1000 nM. The same measure, in the same setting: with `COCc1cc(C(C)C)c(CC(=O)N=S(N)(=O)c2ncc(C(C)(C)O)s2)c(C(C)C)c1` (single isomer, unassigned) [Example 185, (R) or (S)-N-(amino(5-(2-hydroxypropan-2-yl)thiazol-2-yl)(oxo)-λ^6-sulfaneylidene)-2-(2,6-diisopropyl-4-(methoxymethyl)phenyl) acetamide] the figure was 40 to 200 nM. As to `CC(C)c1cc2c(c(C(C)C)c1CC(=O)N=S(N)(=O)c1ccc(CN(C)C)cc1)COC2` (single isomer, unassigned) [Example 191, (R) or (S)-N-(amino(4-((dimethylamino)methyl)phenyl) (oxo)-λ^6-sulfaneylidene)-2-(4,6-diisopropyl-1,3-dihydroisobenzofuran-5-yl)acetamide], under setting [1], the half-inhibitory concentration (IC50) lay within 1000 to 5000 nM. With `CC(C)c1cc2c(c(C(C)C)c1CC(=O)N=S(N)(=O)c1ccc(CN(C)C)cc1)COC2` (single isomer, unassigned) [Example 192, (S) or (R)-N-(amino(4-((dimethylamino)methyl)phenyl) (oxo)-λ^6-sulfaneylidene)-2-(4,6-diisopropyl-1,3-dihydroisobenzofuran-5-yl)acetamide], the IC50 under setting [3] is more than 30000 nM. For the compound `CC(C)c1cc(F)cc(C(C)C)c1C(C)C(=O)N=S(N)(=O)c1cnc(C(C)(C)O)s1` (single isomer, unassigned) [Example 194, (R, S) or (R, R)-N-(amino(2-(2-hydroxypropan-2-yl)thiazol-5-yl)(oxo)-λ^6-sulfaneylidene)-2-(4-fluoro-2,6-diisopropylphenyl) propanamide], the IC50 under setting [1] was in the range of 5000 to 30000 nM. With `CC(C)c1cc(F)cc(C(C)C)c1C(C)C(=O)N=S(N)(=O)c1cnc(C(C)(C)O)s1` (single isomer, unassigned) [Example 195, (R, R) or (R, S)-N-(amino(2-(2-hydroxypropan-2-yl)thiazol-5-yl)(oxo)-λ^6-sulfaneylidene)-2-(4-fluoro-2,6-diisopropylphenyl) propanamide], the IC50 under setting [3] was more than 30000 nM. As for `CC(C)(O)c1ncc(S(N)(=O)=NC(=O)Cc2c(C3CC3)cc(F)cc2C(F)(F)F)s1` (single isomer, unassigned) [Example 196, (R) or (S)-N-(amino(2-(2-hydroxypropan-2-yl)thiazol-5-yl)(oxo)-λ^6-sulfaneylidene)-2-(2-cyclopropyl-4-fluoro-6-(trifluoromethyl)phenyl) acetamide], under setting [1], the IC50 was 5000 to 30000 nM.
